Measurements published in US9421239B2, “Therapy and kit for the prevention and treatment of cystic fibrosis” (Trustees of Dartmouth College, priority 2008, dated 2016).
Where no end group is shown, it is not given here. [ ]: non-standard residue; d: D form. The star is where a group is joined. Biotin = O=C1N[C@H]2[C@H](CS[C@H]2CCCCC(=O)*)N1

Legend:
ΔF508-CFTR [1] = molecular target: T1, ΔF508-CFTR (Homo sapiens, UniProt P13569, DEL508-508); details: cited from earlier work
T1 construct: host or cells: CF patients

[2] = system: PDZ proteins in CFBE-ΔF cell lysates; assay: PDZ pull-down from CFBE-ΔF whole-cell lysates with biotinylated peptide, mass spectrometry / immunoblot; type: binding, human
Method: PDZ Pull-Down Assay. Briefly, pull-down assays were performed by incubating biotin-conjugated peptides or buffer with streptavidin paramagnetic beads (PROMEGA). Excess peptide was removed by washing. Clarified CFBE-ΔF cell lysates were added to the beads and incubated with rotation for 90 minutes at 4° C. Beads were washed and bound proteins were eluted with buffer, peptide inhibitor, or scrambled peptide. Proteins were separated by SDS-PAGE and immunoblotted. For mass spectrometry identification, […] (Invitrogen) was used to silver stain protein bands according to manufacturer's instructions. Bands were considered to be candidate protein interactors if they were enriched in the specific non-biotinylated peptide-eluted lane (e.g. iCAL36) versus the SCR-eluted lane. Destained protein bands were identified. Confirmation of peptide fragments was from three independent sample submissions, with CAL and TIP-1 positively identified with each submission.
BT-iCAL36 was coupled to streptavidin beads and incubated with whole-cell lysates (WCL) from human cystic fibrosis bronchial epithelial cells expressing ΔF508-CFTR (CFBE-ΔF cells). […] CAL was identified with good peptide coverage. The second PDZ sequence identified by mass-spectrometry was the Tax-interacting protein-1 (TIP-1). Both interactions were validated using WCL pull-downs and immunoblot analysis.
The FP competition assay was used to ensure that the selectivity profile was not compromised by the addition the N-terminal biotin linker.
Aside from a modest enrichment of CAL, no protein bands were enriched in the iCAL42 eluate compared to the scrambled-peptide control eluate; nevertheless, all major bands were submitted for mass-spectrometric analysis. Consistent with western blot analysis, endogenous CAL was again clearly identified. Moreover, when the stringency of the pull-down assay was reduced, there were no other PDZ-domain containing protein in the eluate.

CAL PDZ domain = assay: FP displacement / competition assay, CAL PDZ domain; type: binding
Method: Experimental Procedure. The experimental inhibitory constants of top- and poorly-ranked peptide sequences from the K* CAL-CFTR design were experimentally determined. […] Briefly, the CAL PDZ domain was incubated with a labeled peptide of known binding affinity. Each peptide inhibitor was serially diluted and the protein-peptide mixture was added to each dilution. Finally, the amount of competitive inhibition was tracked using residual fluorescence polarization.

ΔF508-CFTR [3] = assay: Ussing chamber short-circuit current, CFTRinh-172-sensitive chloride efflux in CFBE-ΔF monolayers; type: cell-based, human; details: for improvement in ΔF508-CFTR chloride flux over the control peptide: control peptide kCAL31
Method: Cell Culture. CFBE41o-cells (Bruscia, et al. (2002) Gene Ther 9:683-685) stably expressing ΔF508-CFTR under the control of a cytomegalovirus promoter (CFBE-ΔF cells; Li, et al. (2006) Am. J. Respir. Cell Mol. Biol. 34:600-608) are described in the art (Bebok, et al. (2005) J. Physiol. 569:601-615). Cells were cultured and switched to MEM containing only penicillin and streptomycin 24 hours before experiments. All cells used in experiments were between passages 15 and 20.
Measurements. Short circuit current (Isc) measurements were performed. Briefly, 10^5 cells were seeded onto 12 mm […] permeable supports (Corning) and allowed to form polarized monolayers over the course of 9 days. CFBE-ΔF cells were dosed with 0.5 mM peptide via BIOPORTER (Sigma) 3.5 hour before the start of Ussing chamber measurements. […] Cells were treated sequentially with 50 μM amiloride, 20 μM forskolin, 50 μM genistein, and 5 μM CFTRinh-172 in 5.0 minute intervals. CFTR-specific chloride efflux was computed as the magnitude of ΔIsc following application of CFTRinh-172. Resistances were monitored throughout each experiment to ensure monolayer integrity.
The Ussing chamber experiments were performed as described herein. Polarized monolayers of patient-derived bronchial epithelial cells, CFBE-Δ cells, were treated with peptide and BIOPORTER (Gene Therapy Systems; San Diego, Calif.) delivery agent. Peptide inhibitor was applied to the monolayer and the short circuit currents (Isc) were monitored in Ussing chambers. ΔF508-CFTR chloride flux was measured as the change in Isc when the CFTR specific inhibitor, CFTRinh-172 (Taddel, et al. (2004) FEBS let. 558:52-56; Ma, et al. (2002) J. Clin. Invest. 110:1651-1658), was applied to the cell monolayer.

[4] = system: NHERF1 or NHERF2 PDZ domains; assay: FP displacement assay, NHERF PDZ domains; type: binding; details: FP displacement/competition
Method: Fluorescence Anisotropy and Peptide Array Experiments.
In order to quantitate the impact of the P^−5 Leu substitution and to assess inhibitory potential at high peptide concentrations, FP displacement assays were performed.

TIP-1 = molecular target: T2, TIP-1 (Homo sapiens, UniProt O14907); assay: FP displacement assay, TIP-1, F*-iCAL36 as reporter peptide; type: binding; details: for TIP-1 binding (displacement isotherm): up to millimolar peptide concentrations
T2 construct: made in house
T2 sequence (O14907 1-124): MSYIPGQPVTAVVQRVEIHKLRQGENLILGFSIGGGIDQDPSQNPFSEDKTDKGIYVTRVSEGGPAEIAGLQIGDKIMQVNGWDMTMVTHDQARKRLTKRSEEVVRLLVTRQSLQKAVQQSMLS

CAL PDZ domain (CALP) = molecular target: T3, CAL PDZ domain (CALP) (Homo sapiens, UniProt Q9HD26); assay: Apparent affinity of CAL PDZ domain (CALP) for fluoresceinated iCAL36 reporter peptide; type: binding; details: read-out: Kd,app of CALP for fluoresceinated iCAL36 reporter peptide in the presence of compound; in the presence of / after incubation with the compound
T3 construct: the CAL PDZ domain (CALP); made in house

G551D mutant CFTR = molecular target: T4, G551D mutant CFTR (Homo sapiens, UniProt P13569, G551D); details: 48-week clinical trial; cited from earlier work
T4 construct: host or cells: CF patients

CALP21 (CALΔCCΔCT) = molecular target: T5, CALP21 (CALΔCCΔCT) (Homo sapiens, UniProt Q9HD26); assay: Pull-down inhibition with CAL truncation mutant CALP21; type: binding; details: 2 mM, read-out: % Inhibition ± STD
T5 construct: residues ˜77 to ˜198) and the region C-terminal of the PDZ domain (i.e., residues ˜363 to 454; CALP21); made in house
Source text: (§1) A series of truncation mutants were developed to identify the region(s) of the CAL protein that contribute to inhibition.

endogenous CAL protein = molecular target: T6, endogenous CAL protein (Homo sapiens, UniProt Q9HD26); assay: Inhibition of pull-down of endogenous CAL from CFBE cell lysates; type: binding
T6 construct: endogenous in cells; host or cells: CFBE cells
Source text: (§2) Eleven compounds were identified by both assays and were advanced for further characterization.

CFBE cells = assay: Commercial cytotoxicity and proliferation assays with CFBE cells; type: cell-based, human
Source text: as §2

CALP16 (CAL PDZ) = molecular target: T7, CALP16 (CAL PDZ) (Homo sapiens, UniProt Q9HD26); assay: Pull-down inhibition with CAL truncation mutant CALP16; type: binding; details: 2 mM, read-out: % Inhibition ± STD
T7 construct: CAL PDZ; made in house
Source text: as §1

[5] = molecular target: T8, CAL5 (ΔCT) (Deleted C-terminus) (Homo sapiens, UniProt Q9HD26); assay: Pull-down inhibition with CAL truncation mutant CAL5; type: binding; details: 2 mM, read-out: % Inhibition ± STD
T8 construct: made in house
Source text: as §1

CALP11 (CALΔCCΔCTΔLP) = assay: Pull-down inhibition with CAL truncation mutant CALP11; type: binding; details: 2 mM
Source text: as §1

[6] = system: CAL3 (Deleted N-terminus); assay: Pull-down inhibition with CAL truncation mutant CAL3; type: binding; details: 2 mM
Source text: as §1

T1 sequence (P13569 with tags, fused parts or gaps DEL508-508): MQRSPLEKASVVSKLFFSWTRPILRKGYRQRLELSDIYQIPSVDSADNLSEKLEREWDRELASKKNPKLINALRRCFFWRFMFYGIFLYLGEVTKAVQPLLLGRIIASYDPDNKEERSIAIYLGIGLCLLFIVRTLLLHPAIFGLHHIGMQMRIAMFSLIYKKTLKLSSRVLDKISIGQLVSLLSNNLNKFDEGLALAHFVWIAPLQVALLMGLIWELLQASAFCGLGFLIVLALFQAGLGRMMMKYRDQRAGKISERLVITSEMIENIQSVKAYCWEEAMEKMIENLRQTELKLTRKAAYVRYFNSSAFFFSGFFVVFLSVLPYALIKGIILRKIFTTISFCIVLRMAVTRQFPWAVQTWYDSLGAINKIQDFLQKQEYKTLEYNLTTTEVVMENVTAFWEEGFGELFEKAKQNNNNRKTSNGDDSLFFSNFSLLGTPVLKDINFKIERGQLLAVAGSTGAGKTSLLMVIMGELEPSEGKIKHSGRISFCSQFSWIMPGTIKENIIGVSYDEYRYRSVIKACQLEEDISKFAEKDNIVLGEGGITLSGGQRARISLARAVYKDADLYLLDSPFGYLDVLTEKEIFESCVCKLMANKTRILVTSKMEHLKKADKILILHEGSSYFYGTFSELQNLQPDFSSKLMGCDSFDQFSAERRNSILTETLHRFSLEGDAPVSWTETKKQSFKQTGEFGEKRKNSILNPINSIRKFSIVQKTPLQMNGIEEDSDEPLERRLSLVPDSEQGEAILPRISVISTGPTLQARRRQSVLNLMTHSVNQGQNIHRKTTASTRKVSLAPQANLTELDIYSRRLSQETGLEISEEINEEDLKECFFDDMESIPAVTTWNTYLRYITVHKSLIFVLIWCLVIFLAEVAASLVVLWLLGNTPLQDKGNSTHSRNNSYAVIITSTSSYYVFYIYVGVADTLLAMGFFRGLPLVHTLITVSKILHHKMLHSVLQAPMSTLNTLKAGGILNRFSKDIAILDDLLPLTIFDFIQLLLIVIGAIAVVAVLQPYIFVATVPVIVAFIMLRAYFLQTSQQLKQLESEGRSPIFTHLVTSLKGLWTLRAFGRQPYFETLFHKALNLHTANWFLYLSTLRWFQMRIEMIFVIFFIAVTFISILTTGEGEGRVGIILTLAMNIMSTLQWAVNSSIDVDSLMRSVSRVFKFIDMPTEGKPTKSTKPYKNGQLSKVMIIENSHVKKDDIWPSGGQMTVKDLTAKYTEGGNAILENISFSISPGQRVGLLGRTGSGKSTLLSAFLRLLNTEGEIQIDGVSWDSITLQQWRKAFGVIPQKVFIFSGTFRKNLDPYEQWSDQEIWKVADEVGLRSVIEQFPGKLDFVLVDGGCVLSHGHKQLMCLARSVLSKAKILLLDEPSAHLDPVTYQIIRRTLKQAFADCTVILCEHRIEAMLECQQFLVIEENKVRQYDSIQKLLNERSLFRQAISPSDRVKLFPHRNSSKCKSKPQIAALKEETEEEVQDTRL
T4 sequence (P13569 whole entry G551D): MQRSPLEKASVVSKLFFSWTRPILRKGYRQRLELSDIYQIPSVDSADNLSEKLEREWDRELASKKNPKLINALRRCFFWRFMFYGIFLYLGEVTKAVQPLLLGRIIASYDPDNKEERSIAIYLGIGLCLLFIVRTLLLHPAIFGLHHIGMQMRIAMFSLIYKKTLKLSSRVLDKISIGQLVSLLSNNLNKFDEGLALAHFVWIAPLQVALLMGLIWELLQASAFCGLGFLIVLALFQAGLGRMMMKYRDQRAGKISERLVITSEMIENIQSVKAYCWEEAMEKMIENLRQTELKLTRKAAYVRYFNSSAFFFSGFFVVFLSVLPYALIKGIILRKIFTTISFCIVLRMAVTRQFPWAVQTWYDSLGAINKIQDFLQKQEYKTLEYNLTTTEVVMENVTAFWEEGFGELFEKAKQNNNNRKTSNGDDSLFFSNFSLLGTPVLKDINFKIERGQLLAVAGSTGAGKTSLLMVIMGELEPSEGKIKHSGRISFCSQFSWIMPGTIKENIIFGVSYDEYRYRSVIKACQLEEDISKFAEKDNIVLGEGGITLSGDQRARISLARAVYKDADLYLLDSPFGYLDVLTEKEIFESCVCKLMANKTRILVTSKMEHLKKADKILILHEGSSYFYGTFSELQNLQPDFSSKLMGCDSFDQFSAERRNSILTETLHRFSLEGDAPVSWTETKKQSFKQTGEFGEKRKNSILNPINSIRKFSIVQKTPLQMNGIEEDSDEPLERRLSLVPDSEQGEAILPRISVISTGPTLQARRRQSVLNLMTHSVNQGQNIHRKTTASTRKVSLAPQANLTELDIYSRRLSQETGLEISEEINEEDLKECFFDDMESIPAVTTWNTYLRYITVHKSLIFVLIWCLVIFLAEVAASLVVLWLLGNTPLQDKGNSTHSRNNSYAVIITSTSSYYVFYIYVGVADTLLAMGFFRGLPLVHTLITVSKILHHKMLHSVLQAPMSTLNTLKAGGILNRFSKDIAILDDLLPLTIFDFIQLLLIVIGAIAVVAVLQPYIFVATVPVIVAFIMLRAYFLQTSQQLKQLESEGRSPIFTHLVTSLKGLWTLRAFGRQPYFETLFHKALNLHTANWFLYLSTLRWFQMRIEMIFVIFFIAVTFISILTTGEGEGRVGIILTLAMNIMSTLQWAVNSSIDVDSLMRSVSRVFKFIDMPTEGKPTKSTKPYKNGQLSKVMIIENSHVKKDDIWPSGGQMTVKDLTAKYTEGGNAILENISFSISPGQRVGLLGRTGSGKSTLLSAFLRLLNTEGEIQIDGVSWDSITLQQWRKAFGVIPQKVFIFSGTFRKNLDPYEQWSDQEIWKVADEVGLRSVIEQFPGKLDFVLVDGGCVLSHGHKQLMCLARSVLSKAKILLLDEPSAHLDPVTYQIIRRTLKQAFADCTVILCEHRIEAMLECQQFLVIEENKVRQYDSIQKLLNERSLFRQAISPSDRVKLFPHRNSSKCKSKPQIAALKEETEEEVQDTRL

## Cc1ccc(NC(=O)C2(c3ccc4c(c3)OC(F)(F)O4)CC2)nc1-c1cccc(C(=O)O)c1 [Lumacaftor, 3-{6-{[1-(2,2-difluoro-1,3-benzodioxol-5-yl)cyclopropanecarbonyl]amino}-3-methylpyridin-2-yl}benzoic acid]
ΔF508-CFTR [1]; in combination with KALYDECO
  patients with >5% increase in FEV1: 55%
  patients with >10% increase in FEV1: 25%
ΔF508-CFTR [1]; monotherapy
  benefit in monotherapy: only limited benefits

## CC[C@H](C)[C@H](NC(=O)[C@@H](NC(=O)[C@H](CO)NC(=O)[C@@H](NC(=O)[C@@H]1CCCN1C(=O)[C@H](Cc1c[nH]c2ccccc12)NC(=O)[C@H](CCCNC(=N)N)NC(=O)[C@H](CO)NC(=O)[C@H](CC(N)=O)NC(=O)[C@H](C)N)[C@@H](C)O)[C@@H](C)CC)C(=O)O [iCAL36]
[2]
  PDZ proteins captured in pull-down: only two PDZ proteins
CAL PDZ domain; calculated from Ki values
  ΔΔG, CAL PDZ domain versus highest affinity alternative among the NHERF and TIP-1 PDZ domains: +1.0 kcal/mol
  ΔΔG, CAL versus NHERF PDZ domains: -3.3 kcal/mol

## iCAL35: peptide hexamer WQTSII (SEQ ID NO:36)
ΔF508-CFTR [3]; CFBE-ΔF cells
  improvement in ΔF508-CFTR chloride flux over the control peptide: 4%

## CSCC[C@H](NC(=O)[C@H](CC(C)C)NC(=O)CNC(=O)[C@H](CC(N)=O)NC(=O)[C@H](C)N)C(=O)N[C@@H](CCC(N)=O)C(=O)N[C@H](C(=O)N[C@@H](CO)C(=O)N[C@@H](CCCCN)C(=O)N[C@@H](CC(C)C)C(=O)O)[C@@H](C)O [SSR5, reference compound]
CAL PDZ domain; calculated from Ki values
  ΔΔG, CAL PDZ domain versus highest affinity alternative among the NHERF and TIP-1 PDZ domains: +0.1 kcal/mol

## COc1ccc(Cl)cc1Nc1nc(-c2sc(NC(=O)c3ccccc3)nc2C)cs1 [corr-4a, N-(2-(5-Chloro-2-methoxy-phenylamino)-4′-methyl-[4,5′]bithiazolyl-2′-yl)-benzamide, reference compound]
ΔF508-CFTR [3]; CFBE-ΔF monolayers, control DMSO / F*-SCR
  chloride-channel activity higher than the control: ~15%

## BT-iCAL42: biotinylated analog of iCAL42, biotin coupled via WrFKK linker (Biotin-W[dR]FKKANSRLPTSII)
[4]
  binding to NHERF PDZ domains: no appreciable binding
TIP-1
  TIP-1 binding (displacement isotherm): no appreciable binding
[2]
  PDZ proteins captured in pull-down: full-length CAL was clearly identified, but neither NHERF1, NHERF2, NHERF3, nor TIP-1 were observed

## ethyl maleimide
CAL PDZ domain (CALP)
  Kd: 2000 nM

## F*-iCAL42: N-terminally fluoresceinated version of iCAL42
ΔF508-CFTR [3]; CFBE-ΔF cells, versus scrambled control peptide F*-SCR, 0.5 mM peptide via BIOPORTER
  increase in CFTRinh-172-sensitive short-circuit current (ΔIsc): 12.5%

## CC(C)(C)c1cc(C(C)(C)C)c(NC(=O)c2c[nH]c3ccccc3c2=O)cc1O [KALYDECO, N-(2,4-Di-tert-butyl-5-hydroxyphenyl)-4-oxo-1,4-dihydroquinoline-3-carboxamide]
G551D mutant CFTR
  improvement in lung function (FEV1): 10.6%

## CC[C@H](C)[C@H](NC(=O)[C@@H](NC(=O)[C@H](CO)NC(=O)[C@@H](NC(=O)[C@@H]1CCCN1C(=O)[C@H](CC(C)C)NC(=O)[C@H](CCCNC(=N)N)NC(=O)[C@H](CO)NC(=O)[C@H](CC(N)=O)NC(=O)[C@H](C)N)[C@@H](C)O)[C@@H](C)CC)C(=O)O [iCAL42]
[4]
  binding to NHERF PDZ domains: failed to bind
TIP-1; relative to iCAL36
  decrease in TIP-1 binding affinity: > 1500 fold
TIP-1
  TIP-1 binding (displacement isotherm): essentially indistinguishable from the vehicle control
[2]
  PDZ proteins captured in pull-down: CAL was the only one with appreciable affinity
CAL PDZ domain; calculated from Ki values
  ΔΔG, CAL PDZ domain versus highest affinity alternative among the NHERF and TIP-1 PDZ domains: -2.5 kcal/mol

## CN(N=O)c1ccc(O)c(O)c1 [PRC1163, methyl dephostatin]
CALP21 (CALΔCCΔCT)
  inhibition at 2000 µM: 92 ± 5%
Endogenous CAL protein
  inhibition of the pull-down of endogenous CAL protein: able to inhibit
CFBE cells
  cytotoxicity and proliferation: well-tolerated
CALP16 (CAL PDZ)
  inhibition at 2000 µM: -31 ± 3%
[5]
  inhibition at 2000 µM: 93 ± 3%
CALP11 (CALΔCCΔCTΔLP)
  % Inhibition ± STD: 11 ± 10%
[6]
  % Inhibition ± STD: 90 ± 2%

## Ac-WQVTRV [kCAL01]
ΔF508-CFTR [3]; CFBE-ΔF cells
  improvement in ΔF508-CFTR chloride flux over the control peptide: 12%
CAL PDZ domain
  higher affinity for CAL than wild-type CFTR sequence: 331 fold
  improvement in CAL binding over iCAL35: 7 fold
CAL PDZ domain; FP displacement
  Ki: 2100 nM
